Tested on: HBV
Assay: Therapeutic effect on HepG2-hNTCP 2B1 infected by HBV (drug from day 6 after infection)
Assay type: cell-based, hepatitis B virus
Conditions: drug treatment from 6 days after HBV infection to day 12, Palovarotene at high concentrations (p<0.05), ETV 1 μM, vs blank group
Experimental: This experiment was carried out in a 24-well culture plate. […] About 1.5×10^5 HepG2-hNTCP 2B1 cells were plated in each well, and 500 μL of medium B was added to each well. After the cells adhered, medium A was used for replacement to perform the induction with Doxycycline during the whole experiment.
4 Days after the induction with Doxycycline, HBV infection was performed, and the amount of HBV in each well was 100 MOI. Before infection, HBV was diluted in medium C to obtain HBV solution, and the infection volume was 250 μL per well. During infection, the cell supernatant was first removed by suction, the HBV solution was added to the cells, and the cells were incubated for 24 hours, then the supernatant was collected as the sample of Day 0. Then the cells were washed three times with PBS, and fresh medium C was used for replacement. After that, the supernatant was collected every two days for detection, fresh medium C was used for replacement. On the 6th day, fresh drug-containing medium A was used for replacement to start drug treatment, then the supernatant was collected every two days for detection, and fresh drug-containing medium A was used for replacement, until the 12th day, all the supernatant and cells were collected for relevant detection. The detection items included HBsAg, HBeAg, HBV DNA, HBV cccDNA, and for the detection method, please refer to Example 1.

C=C1[C@H](CO)[C@@H](O)C[C@@H]1n1cnc2c(=O)[nH]c(N)nc21 [ETV, Entecavir]
no significant difference: HBeAg | level of HBV DNA | level of HBV cccDNA

Source: patent publication US12569468B2, “Use of palovarotene in treatment against HBV virus” (YANG SHENG TANG COMPANY, LTD., priority 2020, dated 2026)
